Results taken from article PMC3032886, “Cell-Penetrant, Nanomolar O-GlcNAcase Inhibitors Selective against Lysosomal Hexosaminidases” (Chemistry & Biology, 2010).
Read-outs that look alike come from different tables or passages of the source.

Legend:
hHexA/B [1] = assay: hHexA/B inhibition, fluorogenic 4MU-NAG substrate; type: biochemical, human; settings: for Ki: read-out: Ki hHex A/B
hOGA = molecular target: T1, hOGA (Homo sapiens, UniProt O60502); assay: hOGA steady-state kinetics, fluorogenic assay, competitive inhibition fit; type: biochemical
T1 construct: made in house
T1 sequence (O60502 1-916): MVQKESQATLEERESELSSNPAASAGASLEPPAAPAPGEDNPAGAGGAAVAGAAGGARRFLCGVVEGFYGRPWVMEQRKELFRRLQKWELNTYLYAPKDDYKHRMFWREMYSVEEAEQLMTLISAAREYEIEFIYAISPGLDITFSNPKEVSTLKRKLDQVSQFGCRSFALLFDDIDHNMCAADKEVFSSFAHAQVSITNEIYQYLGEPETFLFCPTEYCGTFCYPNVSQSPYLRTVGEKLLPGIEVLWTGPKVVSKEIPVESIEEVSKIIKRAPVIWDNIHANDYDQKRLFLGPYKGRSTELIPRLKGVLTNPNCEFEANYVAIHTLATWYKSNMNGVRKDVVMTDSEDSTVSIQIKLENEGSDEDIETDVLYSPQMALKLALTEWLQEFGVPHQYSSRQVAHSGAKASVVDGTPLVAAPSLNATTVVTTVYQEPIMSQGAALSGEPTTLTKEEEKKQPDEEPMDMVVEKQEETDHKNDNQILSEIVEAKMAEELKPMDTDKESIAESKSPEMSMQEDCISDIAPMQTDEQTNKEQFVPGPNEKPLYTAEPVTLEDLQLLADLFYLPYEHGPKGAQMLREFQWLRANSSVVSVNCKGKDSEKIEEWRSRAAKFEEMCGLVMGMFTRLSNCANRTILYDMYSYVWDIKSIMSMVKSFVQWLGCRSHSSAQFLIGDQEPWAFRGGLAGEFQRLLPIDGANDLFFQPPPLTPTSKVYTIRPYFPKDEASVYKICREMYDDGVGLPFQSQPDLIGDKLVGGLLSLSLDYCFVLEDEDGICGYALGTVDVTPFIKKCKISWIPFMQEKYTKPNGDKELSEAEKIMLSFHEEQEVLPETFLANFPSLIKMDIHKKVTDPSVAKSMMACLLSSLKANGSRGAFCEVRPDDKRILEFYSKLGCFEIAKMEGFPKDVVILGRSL

endogenous hOGA [2] = molecular target: T2, endogenous hOGA (Homo sapiens, UniProt O60502); assay: Cellular O-GlcNAcylation western blot (CTD110.6 antibody), densitometry; type: cell-based; settings: HEK293 cells, 6 hr; for EC50: densitometry, read-out: EC50 increase of cellular O-GlcNAcylation (western blot)
T2 construct: activity on endogenous hOGA in a cell-based assay with HEK293 cells; endogenous in cells; host or cells: HEK293
T2 sequence (O60502 1-916): T1 sequence (O60502 1-916)
Method: (§1) The novel GlcNAcstatin derivatives were investigated for their activity on endogenous hOGA in a cell-based assay with HEK293 cells. […] Furthermore, we determined the EC50 of GlcNAcstatins G and H by O-GlcNAc microscopy assay (Figure 3B; see Figure S1 available online). Elevated total O-GlcNAc levels in HEK293 cells were quantified and normalized over a reference DAPI signal.
For the O-GlcNAc western blots, HEK293 cells were cultured and treated with GlcNAcstatin derivatives as described previously ([Dorfmueller et al., 2009]). Cell lysates were separated by SDS PAGE, and O-GlcNAcylation was detected by western blotting with the anti-O-GlcNAc CTD110.6 antibody and quantified ([Dorfmueller et al., 2009]). To calculate the EC50 values of GlcNAcstatins C, F, and G, the data, background corrected with the untreated cells, were plotted against the inhibitor concentrations using the program GraphPad Prism (http://www.graphpad.com).

CpOGA-wild-type [3] = molecular target: T3, CpOGA-wild-type (Clostridium perfringens, UniProt Q0TR53); settings: cited from earlier work
T3 sequence (Q0TR53 31-624 limits assumed): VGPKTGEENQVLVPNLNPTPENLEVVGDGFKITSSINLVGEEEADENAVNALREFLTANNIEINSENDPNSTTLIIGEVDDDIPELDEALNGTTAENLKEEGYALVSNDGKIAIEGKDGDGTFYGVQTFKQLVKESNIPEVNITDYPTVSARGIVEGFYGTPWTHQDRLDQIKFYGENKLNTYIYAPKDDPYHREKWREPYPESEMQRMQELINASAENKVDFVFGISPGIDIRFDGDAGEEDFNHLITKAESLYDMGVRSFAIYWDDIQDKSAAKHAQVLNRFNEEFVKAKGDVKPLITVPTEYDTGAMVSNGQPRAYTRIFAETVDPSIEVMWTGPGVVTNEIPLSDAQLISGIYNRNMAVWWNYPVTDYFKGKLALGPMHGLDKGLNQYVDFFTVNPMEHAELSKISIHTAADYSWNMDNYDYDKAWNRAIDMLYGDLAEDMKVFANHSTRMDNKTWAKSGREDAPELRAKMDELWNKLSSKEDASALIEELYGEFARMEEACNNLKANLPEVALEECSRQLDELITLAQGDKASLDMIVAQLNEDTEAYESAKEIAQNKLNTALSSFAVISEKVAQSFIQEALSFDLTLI

CpOGA-wild-type [4] = molecular target: T3, CpOGA-wild-type; assay: biochemical; design: species or system C. perfringens
endogenous hOGA [5] = molecular target: T2, endogenous hOGA; assay: O-GlcNAc microscopy assay (RL2 immunostaining, IN Cell Analyzer); type: cell-based; settings: HEK293 cells, 6 hr, normalized over DAPI; read-out: EC50 total O-GlcNAc levels (microscopy assay)
Method: as §1
For the microscopy studies, HEK293 cells were seeded in clear flat-bottom 96 well assay plates (Corning 3340) and grown for 12 hr at 37°C under 5% CO2. Cells were treated with concentrations of GlcNAcstatins G and H (1% final DMSO concentration) for 6 hr. Cells were washed twice with 50 μl PBS and fixed in 3.7% formaldehyde for 10 min at 37°C. After washing with TBST (0.1% Triton X-100) and permeabilized for further 10 min, the cells were blocked with 2% BSA and 0.1% normal donkey serum in TBST for 1 hr at RT, followed by washing twice with TBST. Cells were immunostained with the RL2 O-GlcNAc antibody (1/500) for 12 hr at 4°C and fluorescent secondary (1/500) for 1 hr at RT. Cells were further washed twice with TBS before incubation with DAPI (5 μg/ml) and CellMask (1/25000). Cells were washed twice with TBS and stored in 50 μl PBS. Images were taken and analyzed with the IN Cell Analyzer 1000 system (GE Healthcare).

hHexA/B [6] = settings: read-out: Ki hHex A/B; cited from earlier work

| Compound | Ki (hHexA/B [1]) [µM] | Ki (hOGA; physiological pH 7.3) [µM] | EC50 (endogenous hOGA [2]) [µM] | Ki (CpOGA-wild-type [4]) [pM] | EC50 (endogenous hOGA [5]) [µM] | Ki (hHexA/B [6]) [µM] | further results |
| --- | --- | --- | --- | --- | --- | --- | --- |
| CC(C)C(=O)N[C@H]1c2nc(CCc3ccccc3)cn2[C@H](CO)[C@@H](O)[C@@H]1O [GlcNAcstatin C] | 0.6 ± 0.1 | 0.0032 ± 0.0009 | 0.02 | – | – | – | pH optimum of hOGA inhibition (hOGA; McIlvaine buffer, pH range 4.9–8.1, 1/Ki versus pH): 6.6; Ki (hOGA; pH 6.6 (maximum potency)): 0.0029 µM; Ki (CpOGA-wild-type [3]): 4.6 ± 0.2 pM |
| O=C(CCS)N[C@H]1c2nc(CCc3ccccc3)cn2[C@H](CO)[C@@H](O)[C@@H]1O [GlcNAcstatin F] | 11 ± 0.6 | 0.0112 ± 0.0014 | 0.29 | 3.2 ± 0.2 | – | – | – |
| C=CC=CC(=O)NC1c2nc(CCc3ccccc3)cn2C(CO)C(O)C1O (stereo not drawn) [GlcNAcstatin G] | > 3700 | 0.0041 ± 0.0007 | 0.02 | 7.8 ± 0.7 | 0.003 | – | IC50 (hHexA/B [1]): ~7000 µM; concentration in culture media inducing maximum levels of O-GlcNAcylation (endogenous hOGA [2]; western blot): 100 nM |
| CCCCC(=O)N[C@H]1c2nc(CCc3ccccc3)cn2[C@H](CO)[C@@H](O)[C@@H]1O [GlcNAcstatin H] | – | 0.0026 ± 0.0003 | – | – | 0.042 | – | Ki (hHexA/B [1]; Cheng-Prusoff, approximate values obtained after including an artificial 100% inhibition point (footnote d)): 100 ± 30 µM; Selectivity (hHexA/B/hOGA) (hOGA; ratio of Ki hHexA/B to Ki hOGA): 35,000 |
| CC(=O)N[C@H]1/C(=N/OC(=O)Nc2ccccc2)O[C@H](CO)[C@@H](O)[C@@H]1O [PUGNAc, reference compound] | – | – | – | 5400 ± 400 | – | 0.036 | – |
| Thiamet-G | – | – | – | – | – | 750 | – |
